Tested on: female diabetic dbdb-mice
Experiment: Glucose lowering in female diabetic dbdb-mice
Format: in vivo, mouse
Details: 100 μg/kg s.c.
Experimental: Female diabetic dbdb-mice (BKS.Cg-+Leprdb/+Leprdb/OlaHsd) 10 weeks of age at study start were used. Mice were habituated to feeding and housing conditions for at least 2 weeks. 7 days prior to study start, HbA1c were determined to allocate mice to groups, aiming to spread low, medium and high HbA1c-values and in consequence the group-means (n=8), as equally as possible. On the day of study, food was removed, directly before sampling for baseline glucose assessment (t=0 min). Immediately afterwards, compounds or vehicle (phosphor buffered saline, PBS) were administered subcutaneously, 100 μg/kg, 10 ml/kg. Afterwards, blood samples were drawn by tail tip incision at 15, 30, 60, 90, 120, 150, 180, 240, 360, 480 min and 24 h. Food was re-offered after the 480 min-sampling.
Data were analysed by 2-W-ANOVA on repeated measurements, followed by Dunnett's test as post-hoc assessment, level of significance p<0.05.

Substance	maximal effect, glucose reduction (non-fasted female db/db mice, baseline on average 28 mmol/l)	reduction of glucose compared to vehicle control (female db/db mice, from t=60 min until 240 min, p<0.05)
H-Aib-HGTFTSDLSKQLDEQLAKDFIEWLIAGGPSSGAPPPS-NH2 [SEQ ID NO: 9]	~12 mmol/L	
HSHGTFTSDLSKQLDEQLAKDFIEWLIAGGPSSGAPPPS-NH2 [SEQ ID NO: 10]		statistical significant reduction of glucose

— US20150166625A1 (Sanofi, priority 2013, published 2015)
